Values joined by “and” are separate entries in the source; they are usually repeats but may differ in a detail not shown here. Equal values may be shown once.
How the values were obtained:
[1] = target: RRE IIB RNA; assay: Fluorescence anisotropy: RhdRev binding and AAC competition for RRE IIB RNA; parameters: species or system HIV-1; details: for Kd: competition of AACs with RhdRev (10 nM) for RRE IIB RNA (20 nM) binding, 85 mM NaCl; for IC50: competition of AACs with RhdRev for RRE IIB RNA binding
[2] = target: TAR RNA; assay: Fluorescence anisotropy: RhdRev binding and AAC competition for TAR RNA; parameters: species or system HIV-1; details: for Kd: competition of AACs with RhdRev (10 nM) for TAR RNA (20 nM) binding, 85 mM NaCl; for IC50: competition of AACs with RhdRev for TAR RNA binding; for competition with RhdRev for TAR RNA binding (in words): up to 20 μM of AAC
[3] = target: T1, CXCR4 (Homo sapiens, UniProt P61073); assay: Inhibition of anti-CXCR4 mAb 12G5 binding to cells, flow cytometry; format: cell-based; details: for reduction of 12G5 mAb binding to the cells: 10 μM AAC, PM1 cells, 30 min at 4° C.; for inhibition of mAb 12G5 or SDF-1α binding to CXCR4, % of the NeoR6 activity: in comparison to NeoR6
T1 construct: endogenous in cells; host or cells: PM1 cells and PBMC
Procedure: FIGS. 11a–d are graphs depicting the binding of AACs to CXCR4 in the presence of anti CXCR4 antibody (12G5). PM1 cells were incubated with PE-conjugated isotype control mAb, PE-anti CXCR4 conjugated mAb (12G5) alone, or in the presence of the indicated AACs for 30 min at 4° C. The cells were then washed twice with PBS and analyzed by flow cytometry. The MFI values are shown in parenthesis.
Interaction of AACs with CXCR4 was determined by flow cytometry (FACScan, Becton Dickinson) as described recently (Litovchick et al., 2001, supra). Briefly, 0.5×10^6 cells were washed in ice-cold PBS containing 0.1% sodium azide (wash buffer) and incubated at 4° C. with anti-CXCR4 mAb, 12G5 (PharMingen, San Diego, Calif.) conjugated to phycoerithrine (PE), in the absence or presence of different concentrations of the AACs. After 30 min of incubation, the cells were washed with ice-cold wash buffer and fixed in PBS containing 1% paraformaldehyde. Non-specific fluorescence was assessed by using isotype-matched control. For each sample 10,000 events were acquired. Data were analyzed and processed using CellQuest™ software (Becton Dickinson).

[4] = test system: MT-2 cells; assay: Cellular uptake competition of AACs with NeoR6-FITC, flow cytometry; format: cell-based; details: for competition with NeoR6-FITC uptake (in words): 100 fold excess of non-labeled AAC; for inhibition of NeoR6-FITC uptake, less affinity than NeoR6: 100 fold excess of non-labeled AAC over 0.5 μM NeoR6-FITC
Procedure: Following 15 minutes of incubation at room temperature, the cells were washed twice with ice-cold PBS and fixed in PBS containing 1% paraformaldehyde. Fluorescence was analyzed using flow cytometry.
After 5 or 15 min of incubation at room temperature, the cells were washed twice with ice-cold PBS and fixed in PBS containing 1% paraformaldehyde. The fluorescence was then analyzed by flow cytometry (FACScan, Becton Dickinson Imunocytometry Systems, San Jose, Calif., USA). For each sample 10,000 events were acquired. Data were analyzed and processed.

[5] = test system: U38, PM1, H9 cells and PBMC; assay: Cellular uptake of AAC-FITC fluorescent probes, fluorescence microscopy; format: cell-based; details: 0.5 μM, 10 minutes of incubation
Procedure: Images were obtained using a Zeiss Axiophot microscope.
Cellular uptake using AAC fluorescent probes—U38, PM1, H9 cells and PBMC(10^5) were incubated for 20 minutes at room temperature in 100 μl RPMI 1640 medium (Gibco-BRL, Life-Technologies, UK) including AAC-FITC derivatives as indicated at a final concentration of 0.5 μM. Cells were washed twice, resuspended in 100 μl medium and analyzed with a Zeiss Axiophot fluorescent microscope.

[6] = test system: PM1 cells; assay: Inhibition of FITC-labeled AAC uptake by SDF-1α, flow cytometry; format: cell-based; details: for MFI of FITC-AAC uptake: background MFI of 10; for inhibition of cell uptake by SDF-1α: PM1 cells
Procedure: Following 20 minutes at room temperature the cells were washed twice with PBS and analyzed by flow cytometry.
Following 30 minutes of incubation, cells were washed with ice-cold wash buffer and analyzed by flow cytometry as described above.

[7] = test system: cMAGI cells; assay: Competition between FITC-labelled AACs and RANTES; format: cell-based; details: 2.5 mM RANTES
Procedure: Competition between FITC labelled AACs (1 mM) and RANTES (2.5 mM, Pepro Tech Inc., New Jersey, USA) was effected in 2×10^5 cMAGI cells. Following 30 min of incubation, cells were washed with ice-cold wash buffer and analysed by flow cytometry as described above.

T1 sequence (P61073 whole entry): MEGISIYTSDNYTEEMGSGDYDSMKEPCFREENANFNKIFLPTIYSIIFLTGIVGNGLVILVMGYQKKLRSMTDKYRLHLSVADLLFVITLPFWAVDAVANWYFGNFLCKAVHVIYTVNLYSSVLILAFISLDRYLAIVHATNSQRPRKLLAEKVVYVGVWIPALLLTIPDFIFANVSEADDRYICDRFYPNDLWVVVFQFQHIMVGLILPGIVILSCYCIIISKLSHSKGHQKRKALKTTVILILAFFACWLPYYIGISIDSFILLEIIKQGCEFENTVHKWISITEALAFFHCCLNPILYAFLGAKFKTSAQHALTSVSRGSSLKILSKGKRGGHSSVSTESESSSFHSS

CC(=O)O.N=C(N)NCCCC(N)C(=O)NCC1OC(OC2C(N)CC(N)C(O)C2O)C(N)C(O)C1O (stereo not shown) [NeamR1, argininamido-neamine conjugate]
Kd [1]: 233 ± 4.5 nM | IC50 [1]: 342 ± 29.5 nM | Kd [2]: > 500 nM | IC50 [2]: > 500 nM | reduction of 12G5 mAb binding to the cells [3]: 5% | competition with NeoR6-FITC uptake (in words) [4]: did not compete

CC(=O)O.N=C(N)NCCCC(N)C(=O)NCC1OC(OC2C(NC(=O)C(N)CCCNC(=N)N)CC(NC(=O)C(N)CCCNC(=N)N)C(O)C2O)C(NC(=O)C(N)CCCNC(=N)N)C(O)C1O (stereo not shown) [NeamR4, Neamine tetra-arginine conjugate]
Kd [1]: 55 nM and 54.7 nM | IC50 [1]: 119 ± 13.5 nM | Kd [2]: 30 nM and 30.1 nM | IC50 [2]: 82.8 ± 7.7 nM | folds less active / times weaker than NeoR6, TAR binding ([2]; ratio of KD to that of NeoR6): 6 | competition with RhdRev for TAR RNA binding (in words) [2]: efficiently competed | cellular uptake of FITC-labeled AAC by PM1 cells [5]: uptaken by PM1 cells | MFI of FITC-AAC uptake ([6]; 62.5 nM SDF-1α): 56 | inhibition of cell uptake by SDF-1α ([6]; 125 nM SDF-1α): about 50% | MFI of FITC-AAC uptake ([6]; 125 nM SDF-1α): 52 | MFI of FITC-AAC uptake ([6]; 250 nM SDF-1α): 50 | MFI of FITC-AAC uptake ([6]; without SDF-1α): 96 | reduction of 12G5 mAb binding to the cells [3]: 60% | inhibition of mAb 12G5 or SDF-1α binding to CXCR4, % of the NeoR6 activity [3]: 70% | inhibition of NeoR6-FITC uptake, less affinity than NeoR6 [4]: about 50% | effect of RANTES on uptake of FITC derivative [7]: did not affect uptake

CC(=O)O.N=C(N)NCCCC(N)C(=O)NCC1OC(OC2C(CO)OC(OC3C(O)C(N)CC(N)C3OC3OC(CNC(=O)C(N)CCCNC(=N)N)C(O)C(O)C3N)C2O)C(N)C(O)C1O (stereo not shown) [NeoR2, diargininamido-neomycin B conjugate]
Kd [1]: 112 ± 3.7 nM | IC50 [1]: 208 ± 21.1 nM | Kd [2]: > 500 nM | IC50 [2]: > 500 nM | reduction of 12G5 mAb binding to the cells [3]: 48% | inhibition of mAb 12G5 or SDF-1α binding to CXCR4, % of the NeoR6 activity [3]: 55% | inhibition of NeoR6-FITC uptake, less affinity than NeoR6 [4]: about 50%

CC(=O)O.N=C(N)NCCCC(N)C(=O)NCC1OC(OC2C(CO)OC(OC3C(O)C(N)CC(N)C3OC3OC(CO)C(O)C(O)C3N)C2O)C(N)C(O)C1O (stereo not shown) [ParomR1, argininamido-paramomycin conjugate]
Kd [1]: 254 ± 7.8 nM | IC50 [1]: 407 ± 41 nM | Kd [2]: > 500 nM | IC50 [2]: > 500 nM | reduction of 12G5 mAb binding to the cells [3]: 16% | competition with NeoR6-FITC uptake (in words) [4]: did not compete

CC(=O)O.N=C(N)NCCCC(N)C(=O)NCC1OC(OC2C(CO)OC(OC3C(O)C(NC(=O)C(N)CCCNC(=N)N)CC(NC(=O)C(N)CCCNC(=N)N)C3OC3OC(CO)C(O)C(O)C3NC(=O)C(N)CCCNC(=N)N)C2O)C(NC(=O)C(N)CCCNC(=N)N)C(O)C1O (stereo not shown) [ParomR5, pentaargininamido-paromomycin conjugate]
Kd [1]: 96 nM and 95.9 nM | IC50 [1]: 149 ± 12.3 nM | times weaker than NeoR6, RRE IIB binding ([1]; ratio of KD to that of NeoR6): about 4 | Kd [2]: 15 nM and 15.1 nM | IC50 [2]: 34.3 ± 5.7 nM | competition with RhdRev for TAR RNA binding (in words) [2]: efficiently competed | cellular uptake of FITC-labeled AAC by PM1 cells [5]: uptaken by PM1 cells | MFI of FITC-AAC uptake ([6]; 62.5 nM SDF-1α): 83 | inhibition of cell uptake by SDF-1α ([6]; 125 nM SDF-1α): about 50% | MFI of FITC-AAC uptake ([6]; 125 nM SDF-1α): 59 | MFI of FITC-AAC uptake ([6]; 250 nM SDF-1α): 53 | MFI of FITC-AAC uptake ([6]; without SDF-1α): 104 | reduction of 12G5 mAb binding to the cells [3]: 81% | inhibition of mAb 12G5 or SDF-1α binding to CXCR4, % of the NeoR6 activity [3]: 90% | inhibition of NeoR6-FITC uptake, less efficient than NeoR6 ([4]; 40 fold excess of non-labeled AAC): about 50% | inhibition of NeoR6-FITC uptake, less affinity than NeoR6 [4]: about 50% | effect of RANTES on uptake of FITC derivative [7]: did not affect uptake
